Measured values taken from patent US8293773B2, “1, 2, 3-triazole derivatives as new cannabinoid-1 receptor antagonists” (National Tsing Hua University, priority 2008, dated 2012).

biological target: T1, human CB2 receptor (Homo sapiens, UniProt P34972); experiment: competitive radioligand binding assay, displacement of [3H]CP55,940, CB2; settings: cells printed in μM
T1 construct: expressed in transfected cells; membrane-enriched fractions
Protocol: (§1) In addition, the affinity of test compounds of this invention toward CB1 and CB2 receptors was determined by competitive radioligand binding assays in vitro. This method differentiates the binding strength between compounds by their abilities in displacing a receptor-specific radioactive ligand. […] The readings of the radioactivity retained allow further analysis of receptor binding, and assist in predictions of the pharmacological activities of the test compounds.
(§2) In the assays, CB1 receptors are from human CB1 stably expressed cell lines, and CB2 receptors are from human CB2 stably expressed cell lines. For purification of membrane-enriched fractions, cells were scraped off from the culture dishes in ice-cold buffer A (50 mM Tris, 5 mM MgCl2, 2.5 mM EDTA, pH 7.4, 10% sucrose) with 1 mM PMSF. After sonication, the membrane-enriched fractions were centrifuged for 15 minutes at 2,000×g at 4° C. The supernatant was centrifuged again for 30 minutes at 43,000×g at 4° C. The final pellet was re-suspended in buffer A and stored at −80° C. The protein concentration of the purified membrane was determined by the Bradford method as described by the manual provided by Bio-Rad Laboratories, Inc., Hercules, Calif.
(§3) During the receptor binding experiments, 0.2˜8 μg of membrane fractions were incubated with 0.75 nM [^3H]CP55,940 and a test compound in the incubation buffer of 50 mM Tris-HCl, 5 mM MgCl2, 1 mM EDTA, 0.3% BSA, pH 7.4. The non-specific binding was determined by using 1 μM of CP55,940. The mixture was incubated for 1.5 hours at 30° C. in Multiscreen microplates (Millipore, Billerica, Mass.). At the completion of the incubation, the reaction was terminated by Manifold filtration and washed with ice-cold wash buffer (50 mM Tris, pH 7.4, 0.25% BSA) four times. The radioactivity bound to the filters was measured by Topcount (Perkin Elmer Inc.).

T1 sequence (P34972 whole entry): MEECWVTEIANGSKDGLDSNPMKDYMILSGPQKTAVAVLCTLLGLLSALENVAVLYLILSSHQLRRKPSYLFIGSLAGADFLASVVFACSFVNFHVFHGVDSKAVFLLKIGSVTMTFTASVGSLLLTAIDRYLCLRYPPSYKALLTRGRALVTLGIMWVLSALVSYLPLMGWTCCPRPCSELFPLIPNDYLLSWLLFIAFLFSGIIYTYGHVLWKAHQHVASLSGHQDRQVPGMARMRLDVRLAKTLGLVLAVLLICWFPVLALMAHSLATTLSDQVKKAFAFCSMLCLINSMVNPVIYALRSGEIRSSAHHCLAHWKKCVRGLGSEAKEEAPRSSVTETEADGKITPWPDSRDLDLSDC

IC50 [µM] | Compound
> 10 | O=C(Cn1nc(-c2ccc(Cl)cc2Cl)c(-c2ccc(Cl)cc2Cl)n1)NCc1ccc(F)cc1F [Compound 190]
> 10 | O=C(Cn1nc(-c2ccc(Cl)cc2)c(-c2ccc(Cl)cc2Cl)n1)NCc1ccccc1F [Compound 160]

biological target: T2, human CB1 receptor (Homo sapiens, UniProt P21554); experiment: competitive radioligand binding assay, displacement of [3H]CP55,940, CB1; settings: Table 1; percent inhibition at 10 μM
T2 construct: expressed in transfected cells; membrane-enriched fractions
Protocol: as §1, §2, §3

T2 sequence (P21554 whole entry): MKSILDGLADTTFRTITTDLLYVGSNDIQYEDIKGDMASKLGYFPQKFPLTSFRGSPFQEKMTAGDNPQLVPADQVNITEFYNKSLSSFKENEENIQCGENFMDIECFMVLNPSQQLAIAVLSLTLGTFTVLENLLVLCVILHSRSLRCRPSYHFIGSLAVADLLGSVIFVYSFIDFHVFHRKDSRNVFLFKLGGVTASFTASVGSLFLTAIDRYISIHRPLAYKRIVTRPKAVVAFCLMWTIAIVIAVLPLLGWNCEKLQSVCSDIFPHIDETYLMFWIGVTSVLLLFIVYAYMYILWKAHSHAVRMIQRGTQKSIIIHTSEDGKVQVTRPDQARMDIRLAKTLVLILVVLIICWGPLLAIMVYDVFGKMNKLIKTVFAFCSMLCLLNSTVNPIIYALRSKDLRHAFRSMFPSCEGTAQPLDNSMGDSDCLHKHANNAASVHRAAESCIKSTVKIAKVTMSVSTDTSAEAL

inhibition at 10 µM [%] | Compound
15.7 | CCCCOC(=O)Cn1nnc(-c2ccc(F)c(Cl)c2)c1-c1ccc(F)c(Cl)c1 [Compound 21]
4.1 | CCCCCCCCN(CCCCCCCC)C(=O)Cn1nnc(-c2ccccc2)c1-c1ccccc1 [Compound 39]
19.7 | O=C(Cn1nnc(-c2cccc(F)c2)c1-c1cccc(F)c1)N1CCCCC1 [Compound 18]
26.5 | CCCCOC(=O)Cn1nnc(-c2ccccc2)c1-c1ccc(C)cc1 [Compound 37]
30.3 | CCCCCCCCNC(=O)NNC(=O)Cn1nnc(-c2ccc(Cl)cc2)c1-c1ccc(Cl)cc1 [Compound 49]
14.1 | CC(C)(C)OC(=O)NNC(=O)Cn1nnc(-c2ccccc2)c1-c1ccccc1 [Compound 44]
14.7 | CCCCOC(=O)Cn1nnc(-c2ccccc2)c1-c1ccc([N+](=O)[O-])cc1 [Compound 41]
50.5 | CCCCOC(=O)Cn1nnc(-c2ccc(Cl)c(Cl)c2)c1-c1ccc(Cl)c(Cl)c1 [Compound 6]
26 | O=C(Cn1nnc(-c2ccc(Cl)cc2Cl)c1-c1ccc(Cl)cc1Cl)N1CCOCC1 [Compound 64]
40.8 | CCCCOC(=O)Cn1nnc(-c2ccccc2)c1-c1ccccc1 [Compound 1]
35.6 | CCCCOC(=O)Cn1nnc(-c2ccccc2)c1-c1ccsc1 [Compound 42]
30.7 | O=C(Cn1nnc(-c2ccc(F)c(Cl)c2)c1-c1ccc(F)c(Cl)c1)N1CCCCC1 [Compound 12]
50.8 | CCCCOC(=O)Cn1nnc(-c2ccc(Cl)cc2)c1-c1ccc(Cl)cc1Cl [Compound 46]
35.2 | CCCCOC(=O)Cn1nnc(-c2ccccc2)c1-c1ccc(Cl)cc1 [Compound 36]
15.4 | C=CCNC(=O)Cn1nnc(-c2ccccc2)c1-c1ccccc1 [Compound 7]
24.6 | CCC(CC)OC(=O)Cn1nnc(-c2ccc(Cl)cc2)c1-c1ccc(Cl)cc1 [Compound 33]
36.7 | CCCCOC(=O)Cn1nnc(-c2cccc(Cl)c2)c1-c1cccc(Cl)c1 [Compound 19]
9.8 | CCCCCCNC(=O)NNC(=O)Cn1nnc(-c2ccc(Cl)cc2)c1-c1ccc(Cl)cc1 [Compound 45]
18.9 | CCCCOC(=O)Cn1nnc(-c2ccccc2)c1-c1ccc(C#N)cc1 [Compound 31]
46.1 | CCCCOC(=O)Cn1nnc(-c2ccc(C(=O)OC)cc2)c1-c1ccc(C(=O)OC)cc1 [Compound 61]
47.7 | CCCCCCOC(=O)Cn1nnc(-c2ccc(Cl)cc2Cl)c1-c1ccc(Cl)cc1 [Compound 56]
21.1 | CNC(=O)Cn1nnc(-c2ccccc2)c1-c1ccccc1 [Compound 9]
26.6 | O=C(Cn1nnc(-c2ccccc2)c1-c1ccccc1)N1CCCCC1 [Compound 3]
9.6 | CCCCOC(=O)Cn1cc(-c2ccccc2)nn1 [Compound 4]
29.9 | CCCCOC(=O)Cn1nnc(-c2cc(Cl)cc(Cl)c2)c1-c1cc(Cl)cc(Cl)c1 [Compound 23]
35.4 | O=C(Cn1nnc(-c2ccccc2)c1-c1ccccc1)OCc1ccccc1 [Compound 15]
51.2 | CCCCCOC(=O)Cn1nnc(-c2ccc(Cl)cc2)c1-c1ccc(Cl)cc1 [Compound 20]
20.4 | O=C(Cn1nnc(-c2cccc(Cl)c2)c1-c1cccc(Cl)c1)N1CCCCC1 [Compound 11]
40 | CCCCOC(=O)Cn1nnc(-c2ccc(OC)cc2)c1-c1ccccc1 [Compound 30]
45.7 | CCCCCCOC(=O)Cn1nnc(-c2ccc(Cl)cc2)c1-c1ccc(Cl)cc1Cl [Compound 55]

same assay, conditions: Table 2; percent inhibition at 10 μM

inhibition at 10 µM [%] | Compound
88.2 | O=C(Cn1nc(-c2ccc(Cl)cc2)c(-c2ccc(Cl)cc2Cl)n1)NCc1ccccc1F [Compound 160]
14.9 | CCCCCCCNC(=O)n1nc(-c2ccc(Cl)cc2)c(-c2ccc(Cl)cc2Cl)n1 [Compound 95]
10.9 | CCCCCCNC(=O)n1nc(-c2ccc(Cl)cc2)c(-c2ccc(Cl)cc2Cl)n1 [Compound 94]
76.1 | O=C(Cn1nc(-c2ccc(Cl)cc2)c(-c2ccc(Cl)cc2Cl)n1)NN1CCCCC1 [Compound 142]
7 | CCCCCNC(=O)n1nc(-c2ccc(Cl)cc2Cl)c(-c2ccc(Cl)cc2Cl)n1 [Compound 88]
74.2 | O=C(Cn1nc(-c2ccc(Cl)cc2Cl)c(-c2ccc(Cl)cc2Cl)n1)NC1CCCCC1 [Compound 119]
70.3 | O=C(Cn1nc(-c2ccc(Cl)cc2Cl)c(-c2ccc(Cl)cc2Cl)n1)NN1CCCCC1 [Compound 121]
12.9 | CCCCCCCNC(=O)n1nc(-c2ccc(Cl)cc2)c(-c2ccc(Cl)cc2)n1 [Compound 87]
92.5 | O=C(Cn1nc(-c2ccc(Cl)cc2)c(-c2ccc(Cl)cc2Cl)n1)NCc1ccccc1C(F)(F)F [Compound 158]
26.9 | CCCCCCCCNC(=O)n1nc(-c2ccc(Cl)cc2)c(-c2ccc(Cl)cc2)n1 [Compound 82]
89.4 | O=C(Cn1nc(-c2ccc(Cl)cc2Cl)c(-c2ccc(Cl)cc2Cl)n1)N[C@H]1c2ccccc2C[C@H]1O [Compound 127]
12.7 | Cc1cc(C)cc(NC(=O)n2nc(-c3ccc(Cl)cc3Cl)c(-c3ccc(Cl)cc3Cl)n2)c1 [Compound 76]
13.6 | O=C(Cn1nc(-c2ccc(Cl)cc2Cl)c(-c2ccc(Cl)cc2Cl)n1)N[C@H]1c2ccccc2C[C@H]1OC(=O)Cn1nc(-c2ccc(Cl)cc2Cl)c(-c2ccc(Cl)cc2Cl)n1 [Compound 128]
75.7 | C[C@H](NC(=O)Cn1nc(-c2ccc(Cl)cc2Cl)c(-c2ccc(Cl)cc2Cl)n1)C(O)(c1ccccc1)c1ccccc1 [Compound 133]
3.6 | Cc1cc(C)cc(NC(=O)n2nc(-c3ccc(Cl)cc3)c(-c3ccc(Cl)cc3)n2)c1 [Compound 71]
82.1 | CCCCOC(=O)Cn1nc(-c2ccc(Cl)cc2)c(-c2ccc(Cl)cc2)n1 [Compound 112]
1.5 | O=C(Nc1ccc(Cl)cc1)n1nc(-c2ccc(Cl)cc2)c(-c2ccc(Cl)cc2)n1 [Compound 79]
17.7 | CCCCCCCCNC(=O)n1nc(-c2ccc(Cl)cc2)c(-c2ccc(Cl)cc2Cl)n1 [Compound 96]
76.5 | CCCCCOC(=O)Cn1nc(-c2ccc(Cl)cc2Cl)c(-c2ccc(Cl)cc2Cl)n1 [Compound 116]
48.6 | O=C(Cn1nc(-c2ccc(Cl)cc2)c(-c2ccc(Cl)cc2)n1)N1CCCCC1 [Compound 130]
16.2 | O=C(c1ccccc1)n1nc(-c2ccc(Cl)cc2)c(-c2ccc(Cl)cc2)n1 [Compound 70]
95.2 | CC(NC(=O)Cn1nc(-c2ccc(Cl)cc2)c(-c2ccc(Cl)cc2Cl)n1)c1ccccc1 (stereo not drawn) [Compound 154]
18.3 | CCCCCCCCC(=O)n1nc(-c2ccc(Cl)cc2)c(-c2ccc(Cl)cc2)n1 [Compound 85]
23.4 | O=C(NCCc1ccccc1)n1nc(-c2ccc(Cl)cc2)c(-c2ccc(Cl)cc2Cl)n1 [Compound 103]
27.5 | CCCCCCCCNC(=O)n1nc(-c2ccc(Cl)cc2Cl)c(-c2ccc(Cl)cc2Cl)n1 [Compound 77]
8.4 | CCCCCNC(=O)n1nc(-c2ccc(Cl)cc2)c(-c2ccc(Cl)cc2)n1 [Compound 86]
41.5 | CCCCCCNC(=O)n1nc(-c2ccc(Cl)cc2)c(-c2ccc(Cl)cc2)n1 [Compound 81]
87.7 | O=C(Cn1nc(-c2ccc(Cl)cc2)c(-c2ccc(Cl)cc2Cl)n1)NCc1cccc(F)c1 [Compound 161]

same assay, conditions: Table 2; percent inhibition at 10 μM; 10 µM

CB1 Inhibition (%) (10 μM) | Compound
6.60 | CCCCCCNC(=O)n1nc(-c2ccc(Cl)cc2Cl)c(-c2ccc(Cl)cc2Cl)n1 [Compound 99]
29.20 | O=C(NC1CCCCC1)n1nc(-c2ccc(Cl)cc2Cl)c(-c2ccc(Cl)cc2Cl)n1 [Compound 97]
15.70 | CCCCCCCCNC(=O)n1nc(-c2ccc(Cl)cc2)c(-c2ccc(Cl)cc2)n1 [Compound 102]
50.80 | O=C(NC1CCCCC1)n1nc(-c2ccc(Cl)cc2Cl)c(-c2ccc(Cl)cc2Cl)n1 [Compound 74]

same assay, conditions: displacement of specific [3H]-CP55940 binding in HEK 293 cells stably transfected with human CB1 receptor

IC50 [nM] | Compound
45.9 ± 18.4 | O=C(Cn1nc(-c2ccc(Cl)cc2Cl)c(-c2ccc(Cl)cc2Cl)n1)NCc1ccc(F)cc1F [Compound 190]
262 ± 184 | O=C(Cn1nc(-c2ccc(Cl)cc2)c(-c2ccc(Cl)cc2Cl)n1)NCc1ccccc1F [Compound 160]
1850 ± 1380 | O=C(Cn1nc(-c2ccc(Cl)cc2)c(-c2ccc(Cl)cc2Cl)n1)NN1CCCCC1 [Compound 142]
1050 ± 256 | COC[C@H](NC(=O)Cn1nc(-c2ccc(Cl)cc2)c(-c2ccc(Cl)cc2Cl)n1)[C@@H](O)c1ccccc1 [Compound 140]
302 ± 132 | O=C(Cn1nc(-c2ccc(Cl)cc2)c(-c2ccc(Cl)cc2Cl)n1)NCc1ccccc1C(F)(F)F [Compound 158]
1240 ± 697 | O=C(Cn1nc(-c2ccc(Cl)cc2Cl)c(-c2ccc(Cl)cc2Cl)n1)N[C@H]1c2ccccc2C[C@H]1O [Compound 127]
760 ± 273 | C[C@H](NC(=O)Cn1nc(-c2ccc(Cl)cc2Cl)c(-c2ccc(Cl)cc2Cl)n1)C(O)(c1ccccc1)c1ccccc1 [Compound 133]
2810 ± 301 | CCCCOC(=O)Cn1nc(-c2ccc(Cl)cc2)c(-c2ccc(Cl)cc2)n1 [Compound 112]
2800 ± 544 | CCCCCOC(=O)Cn1nc(-c2ccc(Cl)cc2Cl)c(-c2ccc(Cl)cc2Cl)n1 [Compound 116]
772 ± 446 | CC(NC(=O)Cn1nc(-c2ccc(Cl)cc2)c(-c2ccc(Cl)cc2Cl)n1)c1ccccc1 (stereo not drawn) [Compound 154]
529 ± 144 | O=C(Cn1nc(-c2ccc(Cl)cc2)c(-c2ccc(Cl)cc2Cl)n1)NCc1cccc(F)c1 [Compound 161]
